Measurements taken from US10376488B2, “Use of flavonoids in manufacturing compositions for wound healing” (ONENESS BIOTECH CO., Ltd, priority 2014, dated 2019).
Marks after values point to notes of the source that are not given here.

Tested on: diabetic wound
Experiment: Diabetic wound healing test in STZ-induced hyperglycemic rats
Assay type: in vivo
Design: CT50: wound half-closure time: unit not given beside the values
Details: 0.5% ointment applied to wounds, mean±SEM, n = 6
Method: After rats' body weight reach 300 g, the induction of hyperglycemia was carried out with streptozotocin (STZ) (65 mg/kg, ip administration). […] Hyperglycemic animals with a body weight less than 300 g were excluded, and random grouping was performed. Animals were anesthetized with pentobarbital and then their backs were shaved and disinfected. Three pieces of animal skin (full thickness) were harvested from the back of the animals at points 4, 6 and 8 cm from the midpoint of the two scapula with an 1- cm-diameter drilling round knife.
Wounds of each animal were applied with testing agents. New skins were harvested for examination after the end of experiment.
Analyzing the areas of the three wounds on the back of each rat by image pro with the area on day zero as the original wound area. The original wound area is subtracted by the wound area at each time point and then divided by the original wound area to serve as the percentage of wound healing. The average value of the three percentages of wound healing of each rat is considered as the respective would healing extent of each rat. The number of rats was 6 for each group of each test. Data is expressed as mean±SEM. P value is calculated for the test results by t-test against control group, where P<0.05 indicates significant differences, denoted *.
A 0.5% cirsimaritin composition was prepared in an ointment form, and was applied to the rats as treated above. The comparison between the percentages of wound healing at 9, 11, 13, and 15 days after administration, and the untreated control group is shown below. There were significant differences for each group.

COc1cc2oc(-c3ccc(O)cc3)cc(=O)c2c(O)c1OC [cirsimaritin] was tested, and the “CT50: wound half-closure time” value was 10.7 ± 0.4*, the “percentage of wound healing” value (9 days after administration) was 37.2 ± 3.9* % and the “percentage of wound healing” value (11 days after administration) was 51.5 ± 3.1* %. The “percentage of wound healing” value (13 days after administration) was 70.6 ± 3.5* % and the “percentage of wound healing” value (15 days after administration) was 83.3 ± 3.2* %.
